{
  "source": "paper PMC2978097",
  "about": "“Inhibiting α-Synuclein Oligomerization by Stable Cell-Penetrating β-Synuclein Fragments Recovers Phenotype of Parkinson's Disease Model Flies” (PLoS ONE, 2010)",
  "key": {"α-syn monomers": {"target": "T1, α-syn monomers (Homo sapiens, UniProt P37840)", "T1 construct": "made in house; host or cells: E. coli BL21 (pT7-7)", "test": "Fluorescence anisotropy titration with α-syn monomers", "type": "binding", "details": "fluorescent anisotropy, increasing amounts of α-syn monomers titrated into the peptide solution; Figure S1; read-out: affinity constant (Kd) towards α-syn monomers", "procedure": "To evaluate the binding of the peptides to α-syn, increasing amounts of α-syn monomers were titrated into a solution of the modified β-syn 36 peptide and anisotropy was determined (Figure S1). The affinity constant was determined to be ∼1 µM.\nSupplementary file pone.0013863.s001.tif: Figure S1 The affinity of the modified β-syn 36 containing tryptophan instead of tyrosine towardsα-syn monomers was examined using fluorescent anisotropy. Kd = 1 µM. (0.02 MB TIF) Click here for additional data file."}, "PC12 cells": {"system": "PC12 cells", "test": "Toxicity towards cultured PC12 cells", "type": "cell-based", "details": "concentrations up to 1 mM in the growing medium, twenty four hours; data not shown", "from_the_text": "Our best inhibitor candidate was the β-syn 36 peptide which inhibited both the soluble and insoluble fibrillar aggregates of α-syn."}, "[1]": {"test": "In vitro peptide stability in mouse brain homogenate", "type": "in vitro ADME", "details": "20% peptide solution (1 mM in Tris pH 7.6) and 80% of 10% ICR mouse brain homogenate (0.5% Triton X-100), 37°C, two hours; C18 HPLC, UV 280 nm peak area vs sample in Tris buffer; Figure 5", "procedure": "Peptides were dissolved to give a 1 mM solution in […] (pH 7.6). 120 µl of the peptide solution was diluted into a 10% freshly-made homogenate of mouse brain excluding the cerebellum (in 1× Tris buffer and 0.5% Triton X-100). A mixture containing 20% peptide solution and 80% mouse brain homogenate was incubated at 37°C with delicate shaking for two hours. The enzyme reaction was stopped by adding 0.1 M HCl solution, followed by denaturation of the protein using methanol and incubation at 20°C for one hour. The precipitated proteins were centrifuged at 29,000×g for 20 minutes at 4°C and the supernatant containing the peptide was concentrated under vacuum and separated using a C18 HPLC column. The area of the peak (UV absorbance at 280 nm) corresponding to the intact peptide was compared with an equivalent sample incubated in […].\nFigure 5 Serum stability of β-syn 36 peptides. Brain extract of wild type ICR white mouse was incubated with the peptides β-syn 36 and retro-inverso β-syn 36 for two hours and loaded on a C18 column for serum stability analysis. (A) Spectra of the β-syn 36 peptide (blue) and β-syn 36 peptide with brain extract (red). […] (C) Quantification of the area under the peak. The area of the peptide in time ‘0’ was determined as 100%. […]"}},
  "note": "Where a SMILES comes first, the peptide text is derived from it. Where no end group is shown, it is not given here. [ ]: non-standard residue; d: D form.",
  "data": [
    {"compound": "CC(C)C[C@@H](NC(=O)[C@H](NC(=O)CN)C(C)C)C(=O)N[C@H](Cc1c[nH]c2ccccc12)C(=O)N[C@@H](C(=O)NCC(=O)N[C@H](CO)C(=O)N[C@H](CCCCN)C(=O)N[C@@H](C(=O)N[C@H](CCCNC(=N)N)C(=O)O)[C@H](C)O)C(C)C", "note": "[Y39W β-syn 36D] (H-G[dV][dL][dW][dV]G[dS][dK][dT][dR]-OH)", "values": [
      {"measurement": "Kd", "setting": "α-syn monomers", "value": 1000, "unit": "nM"}
    ]},
    {"compound": "GVLYVGSKTR [β-syn 36]", "values": [
      {"measurement": "toxicity towards cultured cells (PC12)", "setting": "PC12 cells", "value": "no toxicity"}
    ]},
    {"compound": "CC(C)C[C@@H](NC(=O)[C@@H](Cc1ccc(O)cc1)NC(=O)[C@H](NC(=O)CNC(=O)[C@@H](CO)NC(=O)[C@@H](CCCCN)NC(=O)[C@H](NC(=O)[C@H](N)CCCNC(=N)N)[C@H](C)O)C(C)C)C(=O)N[C@@H](C(=O)NCC(=O)O)C(C)C", "note": "[retro-inverso β-syn 36] (H-[dR][dT][dK][dS]G[dV][dY][dL][dV]G-OH)", "values": [
      {"measurement": "stability in mouse brain homogenate (called serum stability)", "setting": "[1]", "value": "more stable than the unmodified β-syn 36"}
    ]}
  ]
}
